Data taken from the supplement of paper PMC11208160.

Assay: recombinant UMI read abundance after kanamycin selection (control-corrected) (log10(CPM+1)); higher = more efficient recombination; extreme values may be limits of the assay; sequences stand for … in AGTGCAGAGAAAATCGGCCAGTTTTCTCTGCCTGCAGTCCGCATGCCGTGGGACCCCTTGGGTTCTAACCTGTTGCCTAGATTTATGCAGCGGACTGCCTTTCTCCCAAAGTGATAAACCGG…AGGTTGGTTTCACT; site = the 11-nt donor
In short: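 Values are reported as log10(CPM+1), obtained by converting sequencing counts to CPM, averaging replicates and scaling by control-derived factors. The counts came from recombinant UMIs amplified by PCR across the donor–target junction. These UMIs came from a pooled Escherichia coli screen of donor and donor-binding-loop pairs for the IS621 bridge recombinase, plated with IPTG (0.07 mM) plus kanamycin or left unselected, in two replicates each.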
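Further: IS621 bridge recombinase in Escherichia coli cells against a fixed T5 target plasmid.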

Point of comparison: “CAAATCACATGGACCGGTTTTCCCGGTAATCCGTATTTGGG (site CAAGTCACTCC)”, “recombinant UMI read abundance (log10)” value 0.00775. Against it:
- ATTGCGGCATGGACCGGTTTTCCCGGTAATCCGTATTTGCT (site TTTGCGGCTAG) — higher, 0.371
- ATTGCGGCATGGACCGGTTTTCCCGGTAATCCGTATTTGGG (site ATTGCGGCTCC) — within 0.2 log units, 0.0219
- ATTGGTACATGGACCGGTTTTCCCGGTAATCCGTATTTGCG (site ATTGGTACTCG) — higher, 1.35
- ATTGTGACATGGACCGGTTTTCCCGGTAATCCGTATTTGGT (site ATTGAGACTAC) — higher, 0.524
- ATTGTGACATGGACCGGTTTTCCCGGTAATCCGTATTTGGT (site ATTGCGACTAC) — within 0.2 log units, 0.0121
- ATTGTGACATGGACCGGTTTTCCCGGTAATCCGTATTTGGT (site ATTGGGACTAC) — within 0.2 log units, 0.0143
- ATTGTGACATGGACCGGTTTTCCCGGTAATCCGTATTTGGT (site ATTGTGACTAC) — higher, 0.925
- ATTGTTCCATGGACCGGTTTTCCCGGTAATCCGTATTTGGT (site ATTGTTCCTAC) — within 0.2 log units, 0
- ATTGTTCCATGGACCGGTTTTCCCGGTAATCCGTATTTGGT (site CTTGTTCCTAC) — within 0.2 log units, 0
- ATTGTTCCATGGACCGGTTTTCCCGGTAATCCGTATTTGGT (site GTTGTTCCTAC) — within 0.2 log units, 0.00837
- ATTGTTCCATGGACCGGTTTTCCCGGTAATCCGTATTTGGT (site TTTGTTCCTAC) — higher, 0.331
- ATTTACACATGGACCGGTTTTCCCGGTAATCCGTATTTGTT (site ATTTACACTAA) — higher, 0.967
- ATTTATGCATGGACCGGTTTTCCCGGTAATCCGTATTTGGA (site AATTATGCTTC) — higher, 0.379
- ATTTATGCATGGACCGGTTTTCCCGGTAATCCGTATTTGGA (site ACTTATGCTTC) — higher, 1.06
- ATTTATGCATGGACCGGTTTTCCCGGTAATCCGTATTTGGA (site AGTTATGCTTC) — higher, 0.744
- ATTTATGCATGGACCGGTTTTCCCGGTAATCCGTATTTGGA (site ATTTATGCTTC) — within 0.2 log units, 0.0921
- CAAAACACATGGACCGGTTTTCCCGGTAATCCGTATTTGCC (site CAAAACACTGG) — within 0.2 log units, 0
- CAAACATCATGGACCGGTTTTCCCGGTAATCCGTATTTGTA (site CAAACATCTTA) — higher, 2.53
- CAAATCACATGGACCGGTTTTCCCGGTAATCCGTATTTGGG (site CAAATCACTCC) — higher, 0.288
- CAAATCACATGGACCGGTTTTCCCGGTAATCCGTATTTGGG (site CAACTCACTCC) — within 0.2 log units, 0.02
- CAAATCACATGGACCGGTTTTCCCGGTAATCCGTATTTGGG (site CAATTCACTCC) — within 0.2 log units, 0.0243
- CAACATTCATGGACCGGTTTTCCCGGTAATCCGTATTTGCA (site CAACATTCTTG) — higher, 2.5
- CAACCCGCATGGACCGGTTTTCCCGGTAATCCGTATTTGTT (site CAACCCGCTAA) — higher, 1.49
- CAACTCACATGGACCGGTTTTCCCGGTAATCCGTATTTGGG (site CAAATCACTCC) — within 0.2 log units, 0.0187
- CAACTCACATGGACCGGTTTTCCCGGTAATCCGTATTTGGG (site CAACTCACTCC) — within 0.2 log units, 0.0233
- CAACTCACATGGACCGGTTTTCCCGGTAATCCGTATTTGGG (site CAAGTCACTCC) — within 0.2 log units, 0.00719
- CAACTCACATGGACCGGTTTTCCCGGTAATCCGTATTTGGG (site CAATTCACTCC) — within 0.2 log units, 0.013
- CAACTGACATGGACCGGTTTTCCCGGTAATCCGTATTTGCT (site CAACTGACTAG) — higher, 2.48
- CAAGAGACATGGACCGGTTTTCCCGGTAATCCGTATTTGCG (site CAAGAGACTCG) — higher, 3.11
- CAAGAGCCATGGACCGGTTTTCCCGGTAATCCGTATTTGGG (site CAAGAGCCTCC) — within 0.2 log units, 0.00368
- CAAGCAGCATGGACCGGTTTTCCCGGTAATCCGTATTTGAT (site CAAGCAGCTAA) — higher, 0.982
- CAAGCAGCATGGACCGGTTTTCCCGGTAATCCGTATTTGAT (site CAAGCAGCTAC) — higher, 0.271
- CAAGCAGCATGGACCGGTTTTCCCGGTAATCCGTATTTGAT (site CAAGCAGCTAG) — higher, 0.784
- CAAGCAGCATGGACCGGTTTTCCCGGTAATCCGTATTTGAT (site CAAGCAGCTAT) — higher, 2.44
- CAAGCAGCATGGACCGGTTTTCCCGGTAATCCGTATTTGCG (site CAAGCAGCTAG) — higher, 1.9
- CAAGCAGCATGGACCGGTTTTCCCGGTAATCCGTATTTGCG (site CAAGCAGCTCG) — higher, 1.81
- CAAGCAGCATGGACCGGTTTTCCCGGTAATCCGTATTTGCG (site CAAGCAGCTGG) — within 0.2 log units, 0
- CAAGCAGCATGGACCGGTTTTCCCGGTAATCCGTATTTGCG (site CAAGCAGCTTG) — higher, 1.68
- CAAGCAGCATGGACCGGTTTTCCCGGTAATCCGTATTTGCT (site AAAGCAGCTAG) — within 0.2 log units, 0
- CAAGCAGCATGGACCGGTTTTCCCGGTAATCCGTATTTGCT (site CAAACAGCTAG) — higher, 0.972
- CAAGCAGCATGGACCGGTTTTCCCGGTAATCCGTATTTGCT (site CAACCAGCTAG) — within 0.2 log units, 0
- CAAGCAGCATGGACCGGTTTTCCCGGTAATCCGTATTTGCT (site CAAGAAGCTAG) — higher, 0.892
- CAAGCAGCATGGACCGGTTTTCCCGGTAATCCGTATTTGCT (site CAAGCAACTAG) — higher, 1.47
- CAAGCAGCATGGACCGGTTTTCCCGGTAATCCGTATTTGCT (site CAAGCACCTAG) — within 0.2 log units, 0
- CAAGCAGCATGGACCGGTTTTCCCGGTAATCCGTATTTGCT (site CAAGCAGCTAA) — higher, 0.285
- CAAGCAGCATGGACCGGTTTTCCCGGTAATCCGTATTTGCT (site CAAGCAGCTAC) — within 0.2 log units, 0.0274
- CAAGCAGCATGGACCGGTTTTCCCGGTAATCCGTATTTGCT (site CAAGCAGCTAG) — higher, 1.84
- CAAGCAGCATGGACCGGTTTTCCCGGTAATCCGTATTTGCT (site CAAGCAGCTAT) — higher, 2.19
- CAAGCAGCATGGACCGGTTTTCCCGGTAATCCGTATTTGCT (site CAAGCAGCTCG) — higher, 0.839
- CAAGCAGCATGGACCGGTTTTCCCGGTAATCCGTATTTGCT (site CAAGCAGCTGG) — higher, 1.4
- CAAGCAGCATGGACCGGTTTTCCCGGTAATCCGTATTTGCT (site CAAGCAGCTTG) — higher, 1.3
- CAAGCAGCATGGACCGGTTTTCCCGGTAATCCGTATTTGCT (site CAAGCATCTAG) — higher, 0.937
- CAAGCAGCATGGACCGGTTTTCCCGGTAATCCGTATTTGCT (site CAAGCCGCTAG) — within 0.2 log units, 0.0579
- CAAGCAGCATGGACCGGTTTTCCCGGTAATCCGTATTTGCT (site CAAGCGGCTAG) — higher, 0.638
- CAAGCAGCATGGACCGGTTTTCCCGGTAATCCGTATTTGCT (site CAAGCTGCTAG) — within 0.2 log units, 0.0658
- CAAGCAGCATGGACCGGTTTTCCCGGTAATCCGTATTTGCT (site CAAGGAGCTAG) — within 0.2 log units, 0
- CAAGCAGCATGGACCGGTTTTCCCGGTAATCCGTATTTGCT (site CAAGTAGCTAG) — within 0.2 log units, 0
- CAAGCAGCATGGACCGGTTTTCCCGGTAATCCGTATTTGCT (site CAATCAGCTAG) — within 0.2 log units, 0
- CAAGCAGCATGGACCGGTTTTCCCGGTAATCCGTATTTGCT (site CACGCAGCTAG) — higher, 0.416
- CAAGCAGCATGGACCGGTTTTCCCGGTAATCCGTATTTGCT (site CAGGCAGCTAG) — within 0.2 log units, 0.00336
- CAAGCAGCATGGACCGGTTTTCCCGGTAATCCGTATTTGCT (site CATGCAGCTAG) — within 0.2 log units, 0.0527
- CAAGCAGCATGGACCGGTTTTCCCGGTAATCCGTATTTGCT (site CCAGCAGCTAG) — within 0.2 log units, 0.00438
- CAAGCAGCATGGACCGGTTTTCCCGGTAATCCGTATTTGCT (site CGAGCAGCTAG) — within 0.2 log units, 0.00425
- CAAGCAGCATGGACCGGTTTTCCCGGTAATCCGTATTTGCT (site CTAGCAGCTAG) — higher, 0.616
- CAAGCAGCATGGACCGGTTTTCCCGGTAATCCGTATTTGCT (site GAAGCAGCTAG) — within 0.2 log units, 0.0166
- CAAGCAGCATGGACCGGTTTTCCCGGTAATCCGTATTTGCT (site TAAGCAGCTAG) — within 0.2 log units, 0.00331
- CAAGCAGCATGGACCGGTTTTCCCGGTAATCCGTATTTGTT (site CAAGCAGCTAA) — higher, 1.83
- CAAGCAGCATGGACCGGTTTTCCCGGTAATCCGTATTTGTT (site CAAGCAGCTAC) — within 0.2 log units, 0.0209
- CAAGCAGCATGGACCGGTTTTCCCGGTAATCCGTATTTGTT (site CAAGCAGCTAG) — higher, 2.47
- CAAGCAGCATGGACCGGTTTTCCCGGTAATCCGTATTTGTT (site CAAGCAGCTAT) — higher, 1.65
- CAAGCCCCATGGACCGGTTTTCCCGGTAATCCGTATTTGTG (site CAAGCACCTCA) — within 0.2 log units, 0.0304
- CAAGCCCCATGGACCGGTTTTCCCGGTAATCCGTATTTGTG (site CAAGCCCCTCA) — within 0.2 log units, 0.0397
- CAAGCCCCATGGACCGGTTTTCCCGGTAATCCGTATTTGTG (site CAAGCGCCTCA) — within 0.2 log units, 0.0132
- CAAGCCCCATGGACCGGTTTTCCCGGTAATCCGTATTTGTG (site CAAGCTCCTCA) — within 0.2 log units, 0.0205
